Source: patent publication US20230055237A1, “COMPOUNDS AND METHODS FOR THE TREATMENT OF CYSTIC FIBROSIS” (Flatley Discovery Lab, LLC, priority 2019, published 2023)

Target: T1, CFTR (Homo sapiens, UniProt P13569, DEL508-508)
T1 construct: Primary CF airway epithelial cells were obtained from the UNC Cystic Fibrosis Tissue Procurement and Cell Culture Core; host or cells: primary CF airway epithelial cells, differentiated at the air-liquid interface
Assay: Equivalent current assay in primary CF airway epithelial cells (NAUC, combination with 1st site corrector FDL169 or VX-809)
Format: cell-based
Conditions: 37° C., 24 h

[1] = test compound 1 μM in combination with 1st site corrector FDL169 (3 μM)
[2] = test compound 3 μM in combination with 1st site corrector FDL169 (3 μM)
[3] = test compound 1 μM in combination with 1st site corrector VX-809 (3 μM)
[4] = test compound 3 μM in combination with 1st site corrector VX-809 (3 μM)
[5] = test compound 10 μM in combination with 1st site corrector VX-809 (3 μM)

T1 sequence (P13569 with tags, fused parts or gaps DEL508-508): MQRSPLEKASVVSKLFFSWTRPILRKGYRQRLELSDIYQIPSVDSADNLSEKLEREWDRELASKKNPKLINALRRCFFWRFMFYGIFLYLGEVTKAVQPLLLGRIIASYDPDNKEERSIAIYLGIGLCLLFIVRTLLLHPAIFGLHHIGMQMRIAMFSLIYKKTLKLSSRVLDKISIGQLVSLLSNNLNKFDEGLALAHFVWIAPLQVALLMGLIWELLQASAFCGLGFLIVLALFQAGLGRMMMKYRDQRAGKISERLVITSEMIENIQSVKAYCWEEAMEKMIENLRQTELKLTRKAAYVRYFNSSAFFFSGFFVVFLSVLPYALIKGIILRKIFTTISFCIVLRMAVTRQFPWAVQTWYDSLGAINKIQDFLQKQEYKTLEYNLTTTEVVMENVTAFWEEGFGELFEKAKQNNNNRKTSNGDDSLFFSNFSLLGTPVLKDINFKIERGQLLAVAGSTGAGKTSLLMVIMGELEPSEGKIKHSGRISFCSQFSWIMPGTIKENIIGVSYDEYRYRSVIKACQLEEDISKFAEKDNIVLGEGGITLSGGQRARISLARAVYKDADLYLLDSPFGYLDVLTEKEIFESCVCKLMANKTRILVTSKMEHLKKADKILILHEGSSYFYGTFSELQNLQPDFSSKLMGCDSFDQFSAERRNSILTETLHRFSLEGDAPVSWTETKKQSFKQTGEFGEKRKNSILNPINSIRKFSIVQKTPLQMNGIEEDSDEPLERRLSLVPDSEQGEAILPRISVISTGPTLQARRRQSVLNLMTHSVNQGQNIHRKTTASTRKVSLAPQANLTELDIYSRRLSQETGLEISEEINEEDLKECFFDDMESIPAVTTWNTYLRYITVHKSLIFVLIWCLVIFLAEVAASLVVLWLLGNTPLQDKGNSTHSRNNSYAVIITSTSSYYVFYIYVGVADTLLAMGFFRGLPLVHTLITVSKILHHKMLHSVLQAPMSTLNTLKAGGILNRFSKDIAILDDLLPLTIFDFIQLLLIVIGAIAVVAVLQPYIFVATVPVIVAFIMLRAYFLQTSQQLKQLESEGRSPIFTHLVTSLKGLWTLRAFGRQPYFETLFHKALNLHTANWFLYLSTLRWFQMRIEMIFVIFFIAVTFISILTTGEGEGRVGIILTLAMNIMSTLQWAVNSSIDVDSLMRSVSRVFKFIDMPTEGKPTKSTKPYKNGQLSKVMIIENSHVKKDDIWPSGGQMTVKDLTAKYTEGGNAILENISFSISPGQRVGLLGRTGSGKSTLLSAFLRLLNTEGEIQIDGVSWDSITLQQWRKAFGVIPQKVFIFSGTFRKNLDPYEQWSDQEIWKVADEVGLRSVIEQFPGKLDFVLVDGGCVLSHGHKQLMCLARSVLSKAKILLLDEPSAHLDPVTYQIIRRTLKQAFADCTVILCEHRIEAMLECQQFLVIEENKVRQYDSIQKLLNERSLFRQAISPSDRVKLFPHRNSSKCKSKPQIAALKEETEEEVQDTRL

SMILES | Nauc @ 1 μM [1] | Nauc @ 3 μM [2] | Nauc @ 1 μM [3] | Nauc @ 3 μM [4] | Nauc @ 10 μM [5] | Nauc @ 10 μM (test compound 10 μM in combination with 1st site corrector FDL169 (3 μM))
CC(C)(C)CN(C(=O)[C@H]1[C@H]2CCCN2C2(C(=O)Nc3c(Cl)cc(Cl)cc32)[C@H]1C(=O)O)c1cc(Cl)cc(Cl)c1 (single isomer, unassigned) [Example 82.6b, (1′S,2′R,7a′S)-5,7-dichloro-1-((3,5-dichlorophenyl)(neopentyl)carbamoyl)-2-oxo-1′,2′,5′,6′,7′,7a′-hexahydrospiro[indoline-3,3′-pyrrolizine]-2′-carboxylic acid] | ++ (NAUC “++” refers to an observed NAUC 170-140% of positive control) | + (NAUC “+” refers to an observed NAUC <140% of positive control) |  |  |  | 
O=C(O)[C@H]1[C@@H](C(=O)N(CC2CC2)c2cccc(C3(C(F)(F)F)CC3)c2)[C@H]2CC(F)(F)CN2[C@]12C(=O)Nc1c(Cl)cc(Cl)cc12 [Example 189] | ++ (NAUC “++” refers to an observed NAUC 170-140% of positive control) | + (NAUC “+” refers to an observed NAUC <140% of positive control) |  |  |  | 
Cn1cnc(NC(=O)[C@H]2[C@@H](C(=O)Nc3cc(Cl)cc(Cl)c3)[C@H]3CCCN3[C@]23C(=O)Nc2c(Cl)cc(Cl)cc23)c1 (single isomer, unassigned) [Example 237, (1′R,2′S,7a′R)-5,7-dichloro-N1′-(3,5-dichlorophenyl)-N2′-(1-methyl-1H-imidazol-4-yl)-2-oxo-1′,2′,5′,6′,7′,7a′-hexahydrospiro[indoline-3,3′-pyrrolizine]-1′,2′-dicarboxamide] |  |  | + (NAUC “+” refers to an observed NAUC <140% of positive control) | + (NAUC “+” refers to an observed NAUC <140% of positive control) | ++ (NAUC “++” refers to an observed NAUC 170-140% of positive control) | 
CC(C)(C)CN(C(=O)[C@H]1[C@H]2C[C@](C)(OCc3ccccc3)CN2[C@]2(C(=O)Nc3c(Cl)cc(Cl)cc32)[C@H]1C(=O)O)c1cc(Cl)cc(Cl)c1 [Example 90, (1′R,2′S,3R,6′S,7a′R)-6′-(benzyloxy)-5,7-dichloro-1-((3,5-dichlorophenyl)(neopentyl)carbamoyl)-6′-methyl-2-oxo-1′,2′,5′,6′,7′,7a′-hexahydrospiro[indoline-3,3′-pyrrolizine]-2′-carboxylic acid] | + (NAUC “+” refers to an observed NAUC <140% of positive control) | + (NAUC “+” refers to an observed NAUC <140% of positive control) |  |  |  | 
O=C(O)[C@H]1[C@@H](C(=O)N(CC2CCCC2)c2cc(Cl)cc(Cl)c2)[C@H]2CCCN2C12C(=O)Nc1c(Cl)cc(Cl)cc12 (single isomer, unassigned) [Example 84b] | +++ (NAUC “+++” refers to an observed NAUC>170% of positive control) | + (NAUC “+” refers to an observed NAUC <140% of positive control) |  |  |  | 
CCN(C(=O)[C@H]1[C@H]2CC(F)(F)CN2C2(C(=O)Nc3c(Cl)cc(Cl)cc32)[C@H]1C(=O)O)c1cc(Cl)cc(Cl)c1 (stereo partly shown) [Example 289] |  |  | +++ (NAUC “+++” refers to an observed NAUC>170% of positive control) | +++ (NAUC “+++” refers to an observed NAUC>170% of positive control) | +++ (NAUC “+++” refers to an observed NAUC>170% of positive control) | 
O=C(O)[C@H]1[C@@H](C(=O)N(CC2CC2)c2cc(Cl)cc(Cl)c2)[C@H]2CC(F)(F)CN2[C@]12C(=O)Nc1c(Cl)cc(Cl)cc12 [Example 173] | +++ (NAUC “+++” refers to an observed NAUC>170% of positive control) | +++ (NAUC “+++” refers to an observed NAUC>170% of positive control) |  |  |  | + (NAUC “+” refers to an observed NAUC <140% of positive control)
O=C(Nc1cccc2cccnc12)[C@H]1[C@H]2CC(F)(F)CN2[C@]2(C(=O)Nc3c(Cl)cc(Cl)cc32)[C@H]1C(=O)O [Example 127] |  |  | + (NAUC “+” refers to an observed NAUC <140% of positive control) | + (NAUC “+” refers to an observed NAUC <140% of positive control) |  | 
O=C(Nc1n[nH]c2ccc(F)cc12)[C@H]1[C@H]2CC(F)(F)CN2[C@]2(C(=O)Nc3c(Cl)cc(Cl)cc32)[C@H]1C(=O)O [Example 130] |  |  | + (NAUC “+” refers to an observed NAUC <140% of positive control) | + (NAUC “+” refers to an observed NAUC <140% of positive control) |  | 
O=C(Nc1cnc(-c2ccccc2)cn1)[C@H]1[C@H]2CC(F)(F)CN2[C@]2(C(=O)Nc3c(Cl)cc(Cl)cc32)[C@H]1C(=O)O [Example 134] |  |  | + (NAUC “+” refers to an observed NAUC <140% of positive control) | + (NAUC “+” refers to an observed NAUC <140% of positive control) |  | 
COCCN(C(=O)[C@H]1[C@H]2CC(F)(F)CN2[C@]2(C(=O)Nc3c(Cl)cc(Cl)cc32)[C@H]1C(=O)O)c1cc(Cl)cc(Cl)c1 [Example 132] |  |  | +++ (NAUC “+++” refers to an observed NAUC>170% of positive control) | +++ (NAUC “+++” refers to an observed NAUC>170% of positive control) | +++ (NAUC “+++” refers to an observed NAUC>170% of positive control) | 
CC(C)C1NC2(C(=O)Nc3c(Cl)cc(Cl)cc32)C(C(=O)O)C1C(=O)Nc1cc(Cl)cc(Cl)c1 (stereo not shown) [Example 33] |  |  |  | +++ (NAUC “+++” refers to an observed NAUC>170% of positive control) | +++ (NAUC “+++” refers to an observed NAUC>170% of positive control) | 
CC1(C)CC2C(C(=O)Nc3cc(Cl)cc(Cl)c3)C(C(=O)O)C3(C(=O)Nc4c(Cl)cc(Cl)cc43)N2C1 (stereo not shown) [Example 13] |  |  |  | +++ (NAUC “+++” refers to an observed NAUC>170% of positive control) | +++ (NAUC “+++” refers to an observed NAUC>170% of positive control) | 
O=C(Nc1cncc(C(F)(F)F)n1)C1C2C[C@H](C(F)(F)F)CN2C2(C(=O)Nc3c(Cl)cc(Cl)cc32)C1C(=O)O (stereo partly shown) [Example 18] |  |  |  | + (NAUC “+” refers to an observed NAUC <140% of positive control) | +++ (NAUC “+++” refers to an observed NAUC>170% of positive control) | 
Cn1ncc2cc(NC(=O)[C@H]3[C@H]4CC(F)(F)CN4[C@]4(C(=O)Nc5c(Cl)cc(Cl)cc54)[C@H]3C(=O)O)ccc21 [Example 138] | + (NAUC “+” refers to an observed NAUC <140% of positive control) | + (NAUC “+” refers to an observed NAUC <140% of positive control) |  |  |  | 
O=C(O)[C@H]1[C@@H](C(=O)N(CC23CC4CC(CC(C4)C2)C3)c2cc(Cl)cc(Cl)c2)[C@H]2CC(F)(F)CN2[C@]12C(=O)Nc1c(Cl)cc(Cl)cc12 [Example 194] | ++ (NAUC “++” refers to an observed NAUC 170-140% of positive control) | +++ (NAUC “+++” refers to an observed NAUC>170% of positive control) |  |  |  | 
CC(C)(C)c1cccc(C(C)(C)CNC(=O)[C@H]2[C@H]3CC(F)(F)CN3[C@]3(C(=O)Nc4c(Cl)cc(Cl)cc43)[C@H]2C(=O)O)c1 (racemic) [Example 288b, rac-(1′R,2′S,3R,7a′R)-1′-((2-(3-(tert-butyl)phenyl)-2-methylpropyl)carbamoyl)-5,7-dichloro-6′,6′-difluoro-2-oxo-1′,2′,5′,6′,7′,7a′-hexahydrospiro[indoline-3,3′-pyrrolizine]-2′-carboxylic acid] |  |  |  |  | + (NAUC “+” refers to an observed NAUC <140% of positive control) | 
